Experimental findings from US10689377B2 (Mirati Therapeutics, Inc., priority 2017, dated 2020) are described below.

KRas G12C, sequence (P01116 1-188 isoform P01116-2 G12C): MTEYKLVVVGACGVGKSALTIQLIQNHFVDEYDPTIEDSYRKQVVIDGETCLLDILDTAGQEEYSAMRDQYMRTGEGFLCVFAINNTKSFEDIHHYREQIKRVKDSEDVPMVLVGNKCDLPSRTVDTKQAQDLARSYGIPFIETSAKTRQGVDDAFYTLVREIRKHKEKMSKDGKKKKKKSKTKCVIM

This assay addresses KRas G12C (Homo sapiens, UniProt P01116, G12C). As to the kind of experiment: Cellular inhibition of KRas G12C measured by Phospho-ERK in NCI-H358 cells. It is filed as cell-based. The settings on record: pERK(Thr202/Tyr204) normalized with GAPDH, NCI-H358 cells, 3 hours; read-out: IC50. A digest of the protocol:
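NCI-H358 cells treated 3 h with compound (0.5% DMSO final), then fixed and methanol-permeabilised. In-cell immunofluorescence measured pERK(Thr202/Tyr204) normalised to GAPDH as percent of DMSO control. IC50 from a 4-parameter dose-response fit.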
In the case of `C=CC(=O)N1CCN(c2nc(OC[C@@H]3CCCN3C)nc3c2CCN(c2cccc4ccncc24)C3)C[C@@H]1CC#N` [Example 430], the IC50 (usually the concentration at which inhibition is half-maximal) lay within 0.1 to 1000 nM.
The same measure for `C=CC(=O)N1CCN(c2nc(OC[C@@H]3CCCN3C)nc3c2CCN(c2ccccc2CC(F)(F)F)C3)CC1CC#N` (stereo partly drawn) [Example 240, 2-(1-acryloyl-4-(2-(((S)-1-methylpyrrolidin-2-yl)methoxy)-7-(2-(2,2,2-trifluoroethyl)phenyl)-5,6,7,8-tetrahydropyrido[3,4-d]pyrimidin-4-yl)piperazin-2-yl)acetonitrile]: > 1000 nM.
The same measure for `C=CC(=O)N1CC2(C1)CN(c1nc(OCCCN(C)C)nc3c1CCN(c1cc(O)cc4ccccc14)C3)C2` [Example 20, 1-(6-(2-(3-(dimethylamino)propoxy)-7-(3-hydroxynaphthalen-1-yl)-5,6,7,8-tetrahydropyrido[3,4-d]pyrimidin-4-yl)-2,6-diazaspiro[3.3]heptan-2-yl)prop-2-en-1-one]: > 1000 nM; for `C=CC(=O)N1CCN(c2nc(OC[C@H]3CCCCN3C)nc3c2CCN(c2cc(O)cc4ccccc24)C3)CC1` [Example 195, (R)-1-(4-(7-(3-hydroxynaphthalen-1-yl)-2-((1-methylpiperidin-2-yl)methoxy)-5,6,7,8-tetrahydropyrido[3,4-d]pyrimidin-4-yl)piperazin-1-yl)prop-2-en-1-one]: > 1000 nM.
The same measure for `C=CC(=O)N1CCN(c2nc(OC[C@@H]3CCN(C)C3)nc3c2CCN(c2c(C(F)(F)F)ccc4[nH]ncc24)C3)CC1CC#N` (stereo partly drawn) [Example 313, 2-[4-[2-[[(3R)-1-methylpyrrolidin-3-yl]methoxy]-7-[5-(trifluoromethyl)-1H-indazol-4-yl]-6,8-dihydro-5H-pyrido[3,4-d]pyrimidin-4-yl]-1-prop-2-enoyl-piperazin-2-yl]acetonitrile]: 0.1 to 1000 nM; for `C=CC(=O)N1CCN(c2nc(OCCCN3CCOCC3)nc3c2CCN(c2cc(C(F)F)cc4ccccc24)C3)CC1` [Example 112, 1-(4-(7-(3-(difluoromethyl)naphthalen-1-yl)-2-(3-morpholinopropoxy)-5,6,7,8-tetrahydropyrido[3,4-d]pyrimidin-4-yl)piperazin-1-yl)prop-2-en-1-one]: > 1000 nM; for `Cc1cccc2cccc(N3CCc4c(nc(OC[C@@H]5CCCN5C)nc4N4CCN(C(=O)/C=C/CN(C)C)[C@@H](CC#N)C4)C3)c12` [Example 459, 2-((S)-1-((E)-4-(dimethylamino)but-2-enoyl)-4-(7-(8-methylnaphthalen-1-yl)-2-(((S)-1-methylpyrrolidin-2-yl)methoxy)-5,6,7,8-tetrahydropyrido[3,4-d]pyrimidin-4-yl)piperazin-2-yl)acetonitrile]: 0.1 to 1000 nM.
Take `C=CC(=O)N1CCN(c2nc(O[C@H](C)CN(C)C)nc3c2CCN(c2c(C)ccc4[nH]ncc24)C3)CC1CC#N` (stereo partly drawn) [Example 152, 2-[4-[2-[(1R)-2-(dimethylamino)-1-methyl-ethoxy]-7-(5-methyl-1H-indazol-4-yl)-6,8-dihydro-5H-pyrido[3,4-d]pyrimidin-4-yl]-1-prop-2-enoyl-piperazin-2-yl]acetonitrile]: the IC50 was in the range of 0.1 to 1000 nM.
The same measure for `C=CC(=O)N1CCN(c2nc(O[C@H](C)CN(C)C)nc3c2CCN(c2cc(O)ccc2C(F)(F)F)C3)CC1` [Example 79, (R)-1-(4-(2-((1-(dimethylamino)propan-2-yl)oxy)-7-(5-hydroxy-2-(trifluoromethyl)phenyl)-5,6,7,8-tetrahydropyrido[3,4-d]pyrimidin-4-yl)piperazin-1-yl)prop-2-en-1-one]: > 1000 nM; for `C=CC(=O)N1CCN(c2nc(OC[C@@H]3CCCN3C)nc3c2CCN(c2cccc4cccc(C)c24)C3)C[C@H]1CC#N` [Example 461, 2-[(2R)-4-[7-(8-methyl-1-naphthyl)-2-[[(2S)-1-methylpyrrolidin-2-yl]methoxy]-6,8-dihydro-5H-pyrido[3,4-d]pyrimidin-4-yl]-1-prop-2-enoyl-piperazin-2-yl]acetonitrile]: 0.1 to 1000 nM; for `C=CC(=O)N1CCN(c2nc(N3CCC(N(C)C)C3)nc3c2CCN(c2cc(O)cc4ccccc24)C3)CC1` (centres unmarked) [Example 13, 1-(4-(2-(3-(dimethylamino)pyrrolidin-1-yl)-7-(3-hydroxynaphthalen-1-yl)-5,6,7,8-tetrahydropyrido[3,4-d]pyrimidin-4-yl)piperazin-1-yl)prop-2-en-1-one]: > 1000 nM.
The same measure for `C=CC(=O)N1CCN(c2nc(OCC3CCCN(C)C3)nc3c2CCN(c2cc(O)cc4ccccc24)C3)CC1` (centres unmarked) [Example 72]: 0.1 to 1000 nM; for `C=CC(=O)N1CCN(c2nc(OC[C@H]3C[C@H](O)CN3C)nc3c2CCN(c2cccc(F)c2C(F)(F)F)C3)CC1CC#N` (stereo partly drawn) [Example 415, 2-(1-acryloyl-4-(7-(3-fluoro-2-(trifluoromethyl)phenyl)-2-(((2R,4S)-4-hydroxy-1-methylpyrrolidin-2-yl)methoxy)-5,6,7,8-tetrahydropyrido[3,4-d]pyrimidin-4-yl)piperazin-2-yl)acetonitrile]: 0.1 to 1000 nM.
On to `C=CC(=O)N1CCN(c2nc(OCCN3CCC(F)(F)CC3)nc3c2CCN(c2cccc4cccc(Cl)c24)C3)C[C@@H]1CC#N` [Example 454], for which the IC50 lay in the range of 0.1 to 1000 nM.
For the compound `C=CC(=O)N1CCN(c2nc(OC[C@@H]3CN(C)CCO3)nc3c2CCN(c2cccc4ccccc24)C3)CC1CC#N` (stereo partly drawn) [Example 444, 2-(1-acryloyl-4-(2-(((S)-4-methylmorpholin-2-yl)methoxy)-7-(naphthalen-1-yl)-5,6,7,8-tetrahydropyrido[3,4-d]pyrimidin-4-yl)piperazin-2-yl)acetonitrile], the IC50 was in the range of 0.1 to 1000 nM.
The same measure for `Cc1cccc2cccc(N3CCc4c(nc(OC[C@@H]5CC(F)(F)CN5C)nc4N4CCN(C(=O)/C=C/CN5CC(F)C5)[C@@H](CC#N)C4)C3)c12` [Example 520, 2-[(2S)-4-[2-[[(2S)-4,4-difluoro-1-methyl-pyrrolidin-2-yl]methoxy]-7-(8-methyl-1-naphthyl)-6,8-dihydro-5H-pyrido[3,4-d]pyrimidin-4-yl]-1-[(E)-4-(3-fluoroazetidin-1-yl)but-2-enoyl]piperazin-2-yl]acetonitrile]: 0.1 to 1000 nM.
Turning to `C=CC(=O)N1CCN(c2nc(OC[C@@H]3C[C@@H](OC)CN3C)nc3c2CCN(c2cccc4ccccc24)C3)CC1CC#N` (stereo partly drawn) [Example 268, 2-(1-acryloyl-4-(2-(((2S,4R)-4-methoxy-1-methylpyrrolidin-2-yl)methoxy)-7-(naphthalen-1-yl)-5,6,7,8-tetrahydropyrido[3,4-d]pyrimidin-4-yl)piperazin-2-yl)acetonitrile], the IC50 lay in the range of 0.1 to 1000 nM.
The same measure for `C=CC(=O)N1CCN(c2nc(OCC3CCN(C)C3)nc3c2CCN(c2cc(O)cc4ccccc24)C3)CC1` (centres unmarked) [Example 89, 1-(4-(7-(3-hydroxynaphthalen-1-yl)-2-((1-methylpyrrolidin-3-yl)methoxy)-5,6,7,8-tetrahydropyrido[3,4-d]pyrimidin-4-yl)piperazin-1-yl)prop-2-en-1-one]: 0.1 to 1000 nM; for `C=CC(=O)N1CCN(c2nc(OC[C@@H]3CCCN3C)nc3c2CCN(c2ccncc2C)C3)C[C@@H]1CC#N` [Example 345, 2-[(2S)-4-[7-(3-methyl-4-pyridyl)-2-[[(2S)-1-methylpyrrolidin-2-yl]methoxy]-6,8-dihydro-5H-pyrido[3,4-d]pyrimidin-4-yl]-1-prop-2-enoyl-piperazin-2-yl]acetonitrile]: > 1000 nM.
The same measure for `C=CC(=O)N1CCN(c2nc(OC[C@@H]3CCCCN3C)nc3c2CCN(c2cc(O)cc4ccccc24)C3)CC1` [Example 196, (S)-1-(4-(7-(3-hydroxynaphthalen-1-yl)-2-((1-methylpiperidin-2-yl)methoxy)-5,6,7,8-tetrahydropyrido[3,4-d]pyrimidin-4-yl)piperazin-1-yl)prop-2-en-1-one]: 0.1 to 1000 nM; for `C=CC(=O)N1CCN(c2nc(OC[C@@H]3CCCN3C)nc3c2CCN(c2c(F)cccc2C(F)(F)F)C3)CC1CC#N` (some centres unmarked) [Example 412]: 0.1 to 1000 nM.
As for `C=CC(=O)N1CCN(c2nc(OC[C@@H]3C[C@H](OC)CN3C)nc3c2CCN(c2cccc4ccccc24)C3)CC1CC#N` (stereo partly drawn) [Example 222, 2-(1-acryloyl-4-(2-(((2S,4S)-4-methoxy-1-methylpyrrolidin-2-yl)methoxy)-7-(naphthalen-1-yl)-5,6,7,8-tetrahydropyrido[3,4-d]pyrimidin-4-yl)piperazin-2-yl)acetonitrile], the IC50 was in the range of 0.1 to 1000 nM.
The same measure for `C=CC(=O)N1CCN(c2nc(OCCN3CCC(OC)C3)nc3c2CCN(c2cc(O)cc4ccccc24)C3)CC1` (centres unmarked) [Example 136, 1-[4-[7-(3-hydroxy-1-naphthyl)-2-[2-(3-methoxypyrrolidin-1-yl)ethoxy]-6,8-dihydro-5H-pyrido[3,4-d]pyrimidin-4-yl]piperazin-1-yl]prop-2-en-1-one]: > 1000 nM.
As to `C=CC(=O)N1CCN(c2nc(OC[C@H]3CCCN3C)nc3c2CCN(c2ccc(F)c4ccccc24)C3)C[C@@H]1CC#N` [Example 318, 2-[(2S)-4-[7-(4-fluoro-1-naphthyl)-2-[[(2R)-1-methylpyrrolidin-2-yl]methoxy]-6,8-dihydro-5H-pyrido[3,4-d]pyrimidin-4-yl]-1-prop-2-enoyl-piperazin-2-yl]acetonitrile], the IC50 lay within 0.1 to 1000 nM.
The same measure for `C=CC(=O)N1CCN(c2nc(OCCN3CCOCC3)nc3c2CCN(c2cc(O)cc4ccccc24)C3)CC1` [Example 117, 1-(4-(7-(3-hydroxynaphthalen-1-yl)-2-(2-morpholinoethoxy)-5,6,7,8-tetrahydropyrido[3,4-d]pyrimidin-4-yl)piperazin-1-yl)prop-2-en-1-one]: > 1000 nM; for `C=CC(=O)N1CCN(c2nc(OC[C@@H]3CCCN3C)nc3c2CCN(c2cccc4cccnc24)C3)CC1CC#N` (stereo partly drawn) [Example 247, 2-(1-acryloyl-4-(2-(((S)-1-methylpyrrolidin-2-yl)methoxy)-7-(quinolin-8-yl)-5,6,7,8-tetrahydropyrido[3,4-d]pyrimidin-4-yl)piperazin-2-yl)acetonitrile]: > 1000 nM.
